Here are results for 20 compounds from ChEMBL document CHEMBL1201862, “PubChem BioAssay data set” (2004).

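Grown in 96-well plates, cells were treated for 48 hours with each compound at five concentrations. Insufficient inhibition: endpoint recorded as highest concentration tested. Abbreviation: GI50, concentration required for 50% inhibition of growth.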 Active and inactive are the calls of the source. Cut-off read from the data, not from the text of the source: active = GI50 up to about 1.1 µM and inactive = higher.

Test systems include DMS-114; LXFL 529; KM-20L2; SNB-78; DLD-1; RXF 631; DMS-273; M19-MEL; XF498.
Assay in all cases: NCI anticancer screen, dose series, 48 h

As to `CCCCCCCCC(C)CCCCCCCCC(=O)OCC(COP(=O)([O-])OCC[N+](C)(C)C)OC(=O)CCCCCCCCC(C)CCCCCCCC` (stereo not drawn), the GI50 in the assay on DMS-114, with LXFL 529, in the assay with KM-20L2, with SNB-78, with DLD-1 and in the assay on RXF 631 was > 100 µM (inactive) throughout. Besides, the GI50 in the assay with DMS-273 and in the assay with M19-MEL was > 100 µM (inactive) each time.

For `O=C(CSc1nnc(-c2ccc(/N=C\c3ccc(Cl)cc3)cc2)o1)Nc1cccc(Cl)c1`, the GI50 in the assay on DMS-114, in the assay on LXFL 529, in the assay on KM-20L2, in the assay with SNB-78, in the assay with XF498 and in the assay with DMS-273 was > 100 µM (inactive) in each case. For the same compound, in the assay on M19-MEL, the GI50 is > 100 µM (inactive).

For the compound `COc1cc(/C=N/N=C(\N)NO)c([N+](=O)[O-])cc1OC`, the GI50 in the assay on DMS-114 is 6.75 µM (inactive); in the assay with LXFL 529 it was 27 µM (inactive); with KM-20L2 it was 30.1 µM (inactive); in the assay on SNB-78, 76.2 µM (inactive); in the assay with DLD-1, 56 µM (inactive); in the assay on RXF 631, 26.7 µM (inactive). For the same compound, the GI50 was 25.9 µM (inactive) in the assay on DMS-273 and 31.9 µM (inactive) in the assay on M19-MEL.

With `CC(=O)Nc1ccc(C2CC(c3ccc([N+](=O)[O-])cc3)=Nc3ccccc3S2)cc1` (stereo not drawn), the GI50 in the assay on LXFL 529 was 16.6 µM (inactive); with KM-20L2 it was 20.2 µM (inactive); with SNB-78 it was 36.1 µM (inactive); with XF498, 13.3 µM (inactive); with DLD-1 it was 13.3 µM (inactive); in the assay with RXF 631, 22.9 µM (inactive). Moreover, the GI50 in the assay with DMS-273 was 24.4 µM (inactive); in the assay on M19-MEL, 18.8 µM (inactive).

In the case of `O=[N+]([O-])c1cc(Cl)ccc1OCc1ccccc1`, the GI50 is 29.4 µM (inactive) in the assay on DMS-114; 41.6 µM (inactive) with LXFL 529; 32.8 µM (inactive) with SNB-78; 20.4 µM (inactive) in the assay with XF498; 82.2 µM (inactive) in the assay on DLD-1; > 100 µM (inactive) with RXF 631. The GI50 in the assay on DMS-273 is 54.6 µM (inactive); in the assay on M19-MEL it was 44.3 µM (inactive).

In the case of `COc1ccc(C2C(Cl)C(=O)N2NC(=O)c2ccc(N)cc2)cc1OC` (stereo not drawn), the GI50 in the assay with LXFL 529 was 1.95 µM (inactive); with KM-20L2 it was 12.1 µM (inactive); in the assay with SNB-78, 63.7 µM (inactive); in the assay on XF498 it was 1 µM (active); in the assay with DLD-1, 3.66 µM (inactive); in the assay on DMS-273, 2.72 µM (inactive). Besides, the GI50 in the assay on M19-MEL is 4.95 µM (inactive).

With `O=C(O)C(=O)/C=C\c1ccc(Cl)cc1`, the GI50 with DMS-114 is 84.1 µM (inactive); in the assay on LXFL 529 it was > 100 µM (inactive); with KM-20L2 it was > 100 µM (inactive); in the assay with SNB-78, > 100 µM (inactive); with XF498 it was > 100 µM (inactive); with DLD-1, > 100 µM (inactive). Besides, the GI50 with DMS-273 and in the assay with M19-MEL was > 100 µM (inactive) each time.

Regarding `Cc1ccc2[nH]c(=O)c(C(C#N)c3ccccc3)nc2c1` (stereo not drawn), the GI50 is 32.7 µM (inactive) in the assay on LXFL 529; 37.2 µM (inactive) with KM-20L2; 28.1 µM (inactive) in the assay on SNB-78; 42.6 µM (inactive) in the assay on DLD-1; 44.1 µM (inactive) with RXF 631; 44.5 µM (inactive) with DMS-273.

Regarding `COC(=O)C1(C(=O)OC)CC2c3c(c4ccccc4n3C)CC(C1=O)N2Cc1ccccc1` (stereo not drawn), the GI50 in the assay on DMS-114, with LXFL 529, in the assay with KM-20L2, in the assay on SNB-78, in the assay on XF498 and in the assay on DLD-1 was > 100 µM (inactive) throughout. Further, the GI50 with RXF 631, with DMS-273 and with M19-MEL was > 100 µM (inactive) each time.

As to `OCC(O)C(O)C(O)C1SC(c2ccccc2)=NN1c1ccccc1` (stereo not drawn), the GI50 in the assay on DMS-114 is > 84.7 µM (inactive); with LXFL 529 it was > 95.5 µM (inactive); in the assay with KM-20L2 it was > 100 µM (inactive); in the assay on SNB-78 it was 44.4 µM (inactive); in the assay on XF498, 30.1 µM (inactive); in the assay on DLD-1 it was > 100 µM (inactive). Besides, the values for the GI50 with RXF 631, with DMS-273 and in the assay on M19-MEL were 49.3 µM (inactive), > 76.6 µM (inactive) and > 100 µM (inactive), respectively.

In the case of `S=C(Nc1ccccc1)N(/N=C/C=C/c1ccccc1)c1nnc(-c2ccccc2)c(-c2ccccc2)n1`, the GI50 in the assay on DMS-114 was 26.4 µM (inactive); with KM-20L2 it was > 100 µM (inactive); in the assay on SNB-78 it was > 100 µM (inactive); in the assay on XF498 it was 61 µM (inactive); with DLD-1, 76.4 µM (inactive); in the assay with RXF 631, 80.7 µM (inactive). Also, the figures for the GI50 in the assay on DMS-273 and with M19-MEL were 45.5 µM (inactive) and 64.9 µM (inactive), respectively.

Consider `O=c1c2cc(-c3ccccc3)sc2nc2sc(-c3ccccc3)nn12`, for which the GI50 with DMS-114, in the assay on LXFL 529, in the assay on KM-20L2, with SNB-78, in the assay with XF498 and in the assay on DLD-1 was > 100 µM (inactive) in each case. In addition, the GI50 in the assay on RXF 631, with DMS-273 and with M19-MEL was > 100 µM (inactive) each time.

`COC(=O)C1=C(O)c2cc(OC)c(OC)c(OC)c2C(c2ccc3c(c2)OCO3)[C@@H]1C(=O)OC` (stereo partly drawn): the GI50 with DMS-114 was 2.4 µM (inactive); in the assay on LXFL 529, 3.08 µM (inactive); in the assay with KM-20L2, 2.36 µM (inactive); in the assay on SNB-78 it was 15.1 µM (inactive); in the assay on DLD-1, 4.69 µM (inactive); in the assay with RXF 631, 5.82 µM (inactive). Also, the GI50 in the assay with DMS-273 was 3.02 µM (inactive).

For the compound `CC(=O)c1cccc(NC(=O)C(=O)C(C2OC(=O)c3ccccc32)[N+](=O)[O-])c1` (stereo not drawn), the GI50 in the assay on DMS-114, in the assay with LXFL 529, in the assay with KM-20L2, in the assay with SNB-78, in the assay with XF498 and in the assay on DLD-1 was > 100 µM (inactive) in each case. Moreover, the GI50 in the assay on RXF 631 and in the assay with M19-MEL was > 100 µM (inactive) throughout.

For `Cc1[nH]c2ccccc2c1C1Cc2ccccc2N1C(=O)/C=C/C(=O)O` (stereo not drawn), the GI50 is > 100 µM (inactive) in the assay with DMS-114; > 100 µM (inactive) in the assay with LXFL 529; > 100 µM (inactive) in the assay with KM-20L2; > 100 µM (inactive) in the assay with SNB-78; 32.4 µM (inactive) with XF498; > 100 µM (inactive) in the assay with DLD-1. In addition, the values for the GI50 in the assay on RXF 631, with DMS-273 and with M19-MEL were 18.4 µM (inactive), > 100 µM (inactive) and > 100 µM (inactive), respectively.

`Cc1ccc(NC(=O)CC(=O)n2nc(C)c(/N=N/c3ccccc3C(=O)O)c2C)cc1`: the GI50 in the assay with DMS-114, with LXFL 529, with KM-20L2, with SNB-78, in the assay with XF498 and in the assay on DLD-1 was > 100 µM (inactive) each time. Moreover, the GI50 with RXF 631, in the assay with DMS-273 and with M19-MEL was > 100 µM (inactive) in each case.

Take `Cn1nc(-c2ccccc2)c(C(=O)/C=C/c2ccccc2)c(N2CCOCC2)c1=O`: the GI50 in the assay with DMS-114 was 16.8 µM (inactive); in the assay on LXFL 529, 16 µM (inactive); in the assay with KM-20L2, 18.1 µM (inactive); with XF498, 12.7 µM (inactive); with DLD-1, 20.4 µM (inactive); with DMS-273, 19.8 µM (inactive). Besides, in the assay with M19-MEL, the GI50 was 23.1 µM (inactive).

For `Cc1ccccc1N1C(=O)/C(=C/c2ccc(N(CCC#N)CCC#N)cc2)N=C1c1cc([N+](=O)[O-])ccc1Cl`, the GI50 was > 100 µM (inactive) with DMS-114; 96.8 µM (inactive) in the assay on LXFL 529; > 100 µM (inactive) with KM-20L2; > 100 µM (inactive) in the assay on SNB-78; 79.1 µM (inactive) in the assay on DLD-1; > 100 µM (inactive) in the assay with RXF 631. In the assay on DMS-273, the GI50 is 78.9 µM (inactive).

For `CCN(CC)CCCC(C)NC(=O)c1ccc2c(c1)C(=O)c1ccccc1C2=O` (stereo not drawn), the GI50 in the assay on DMS-114 is 11.4 µM (inactive); with LXFL 529, 24.7 µM (inactive); in the assay on KM-20L2, 18.3 µM (inactive); in the assay on SNB-78, 22.9 µM (inactive); in the assay on XF498, 16.1 µM (inactive); with DLD-1, 17.5 µM (inactive). Moreover, the GI50 in the assay with RXF 631 is 24.1 µM (inactive); in the assay with DMS-273, 21.9 µM (inactive); in the assay with M19-MEL it was 16.7 µM (inactive).

In the case of `CCOC(=O)NC(=O)c1cn(CCN2CCN(C(=O)NCCCCCCNC(=O)N3CCN(CCn4cc(C(=O)NC(=O)OCC)c(=O)n(CCN(CC)CC)c4=O)CC3)CC2)c(=O)n(CCC(CC)CC)c1=O`, the GI50 with DMS-114, in the assay on LXFL 529, in the assay with KM-20L2, in the assay on SNB-78, in the assay on DLD-1 and in the assay on DMS-273 was > 100 µM (inactive) in each case. The GI50 with M19-MEL was > 100 µM (inactive).
